# Target: T1, KMO mouse enzyme (Mus musculus, UniProt Q91WN4)
# T1 construct: KMO enzyme prepared at Evotec from mouse liver (4-6 weeks old) via mitochondria isolation; from tissue; host or cells: mouse liver (4-6 weeks old), isolated mitochondria, prepared at Evotec
# Assay: KMO mouse enzyme assay: L-Kynurenine hydroxylation to 3-Hydroxy-Kynurenine by LC/MS (protocols substantially similar to Example 33)
# Assay type: biochemical
# Conditions: compound at 30 µM; KMO enzyme from mouse liver mitochondria; 100 μM L-Kynurenine; 40 min at RT
# Procedure: A method of monitoring L-Kynurenine (KYN) hydroxylation to form 3-Hydroxy-Kynurenine (3OH-KYN) by LC/MS is described. Product is quantified by multiple reaction monitoring (MRM method). […]
# Using the assay protocols substantially similar to those of Example 33, the following compounds were tested.
# T1 sequence (Q91WN4 whole entry): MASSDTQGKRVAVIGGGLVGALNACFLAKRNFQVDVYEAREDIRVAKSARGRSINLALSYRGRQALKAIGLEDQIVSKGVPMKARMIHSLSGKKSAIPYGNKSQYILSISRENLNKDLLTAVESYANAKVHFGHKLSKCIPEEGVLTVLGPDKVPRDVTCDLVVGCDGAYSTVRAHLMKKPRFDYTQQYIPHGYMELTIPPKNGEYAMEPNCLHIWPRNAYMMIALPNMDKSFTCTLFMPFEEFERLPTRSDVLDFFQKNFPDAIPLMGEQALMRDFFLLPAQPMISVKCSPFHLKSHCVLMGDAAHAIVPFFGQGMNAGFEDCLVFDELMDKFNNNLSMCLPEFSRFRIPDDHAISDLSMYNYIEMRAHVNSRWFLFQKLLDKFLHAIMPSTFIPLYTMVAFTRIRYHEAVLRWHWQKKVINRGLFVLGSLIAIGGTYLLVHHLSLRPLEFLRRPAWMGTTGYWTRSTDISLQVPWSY
row,Structure (SMILES),inhibition at 30 µM [%]
1,"C[C@H]1[C@@H](C(=O)O)[C@@H]1C(=O)c1ccc(Cl)c(Cl)c1 (single isomer, unassigned)",101
2,"C[C@@H]1[C@@H](C(=O)O)[C@@H]1C(=O)c1ccc(Cl)c(Cl)c1 (single isomer, unassigned)",96.7
3,"C[C@H]1[C@H](C(=O)O)[C@H]1C(=O)c1ccc(Cl)c(Cl)c1 (single isomer, unassigned)",101
4,"C[C@@H]1[C@H](C(=O)O)[C@H]1C(=O)c1ccc(Cl)c(Cl)c1 (single isomer, unassigned)",52.5
5,"O=C(c1ccc(Cl)c(Cl)c1)C1CC12CCOC2=O (centres unmarked) [1-[(3,4-dichlorophenyl)carbonyl]-5-oxaspiro[2.4]heptan-4-one]",38
6,"CCOC(=O)OC(C)OC(=O)[C@H]1C[C@@H]1C(=O)c1ccc(Cl)c(Cl)c1 (stereo partly drawn) [1-[(Ethoxycarbonyl)oxy]ethyl (1S,2S)-2-[(3,4-dichlorophenyl)carbonyl]cyclopropane-1-carboxylate]",102
7,"CC(=O)OC(C)OC(=O)[C@H]1C[C@@H]1C(=O)c1ccc(Cl)c(Cl)c1 (stereo partly drawn) [1-{[(1S,2S)-2-[(3,4-Dichlorophenyl)carbonyl]cyclopropyl]carbonyloxy}ethyl acetate]",103
8,"CC(OC(=O)[C@H]1C[C@@H]1C(=O)c1ccc(Cl)c(Cl)c1)OC(=O)[C@H]1C[C@@H]1C(=O)c1ccc(Cl)c(Cl)c1 [1-{[(1S,2S)-2-[(3,4-dichlorophenyl)carbonyl]cyclopropyl]carbonyloxy}ethyl (1S,2S)-2-[(3,4-dichlorophenyl)carbonyl]cyclopropane-1-carboxylate]",98
9,"CC(C)OC(=O)OC(C)OC(=O)[C@H]1C[C@@H]1C(=O)c1ccc(Cl)c(Cl)c1 (stereo partly drawn) [1-{[(Propan-2-yloxy)carbonyl]oxy}ethyl (1S,2S)-2-[(3,4-dichlorophenyl)carbonyl]cyclopropane-1-carboxylate]",103
10,"CCN(CC)CCOC(=O)[C@H]1C[C@@H]1C(=O)c1ccc(Cl)c(Cl)c1 [2-(Diethylamino)ethyl (1S,2S)-2-[(3,4-dichlorophenyl)carbonyl]cyclopropane-1-carboxylate]",102
11,"O=C(OCCO)[C@H]1C[C@@H]1C(=O)c1ccc(Cl)c(Cl)c1 [2-Hydroxyethyl (1S,2S)-2-[(3,4-dichlorophenyl)carbonyl]cyclopropane-1-carboxylate]",102
12,"CC(C)COC(=O)[C@H]1C[C@@H]1C(=O)c1ccc(Cl)c(Cl)c1 [2-Methylpropyl (1S,2S)-2-[(3,4-dichlorophenyl)carbonyl]cyclopropane-1-carboxylate]",101
13,"O=C(c1ccc(Cl)c(Cl)c1)[C@H]1C[C@@H]1c1noc(=O)[nH]1 [3-[(1S,2S)-2-[(3,4-Dichlorophenyl)carbonyl]cyclopropyl]-4,5-dihydro-1,2,4-oxadiazol-5-one]",101
14,"O=C(c1ccc(F)c(Cl)c1)[C@H]1C[C@@H]1c1noc(=O)[nH]1 [3-[(1S,2S)-2-[(3-Chloro-4-fluorophenyl)carbonyl]cyclopropyl]-4,5-dihydro-1,2,4-oxadiazol-5-one]",101
15,"CC(C)(C)c1ccc(OC(=O)[C@H]2C[C@@H]2C(=O)c2ccc(Cl)c(Cl)c2)cc1 [4-tert-Butylphenyl (1S,2S)-2-[(3,4-dichlorophenyl)carbonyl]cyclopropane-1-carboxylate]",101
16,"O=C1CN(C(=O)[C@H]2C[C@@H]2C(=O)c2ccc(Cl)c(Cl)c2)CCN1 [4-{[(1S,2S)-2-[(3,4-Dichlorophenyl)carbonyl]cyclopropyl]carbonyl}piperazin-2-one]",33
17,"O=C(c1ccc(Cl)c(Cl)c1)[C@H]1C[C@@H]1c1nnn[nH]1 [5-[(1S,2S)-2-[(3,4-Dichlorophenyl)carbonyl]cyclopropyl]-1H-1,2,3,4-tetrazole]",101

row,Structure (SMILES),inhibition at 30 µM [%]
1,"CC1(C)[C@H](C(=O)O)[C@H]1C(=O)c1ccc(Cl)c(Cl)c1 [(1R,3R)-3-(3,4-dichlorobenzoyl)-2,2-dimethylcyclopropane-1-carboxylic acid]",54
2,O=C(c1ccc(F)c(Cl)c1)C1C[C@@H]1C(=O)O (stereo partly drawn) [(1S)-2-[(3-Chloro-4-fluorophenyl)carbonyl]cyclopropane-1-carboxylic acid],68
3,"C[C@]1(C(=O)O)C[C@@H]1C(=O)c1ccc(Cl)c(Cl)c1 [(1S,2S)-2-(3,4-dichlorobenzoyl)-1-methylcyclopropane-1-carboxylic acid]",98.6
4,"O=C(Nc1ccccc1)[C@H]1C[C@@H]1C(=O)c1ccc(Cl)c(Cl)c1 [(1S,2S)-2-[(3,4-Dichlorophenyl)carbonyl]-N-phenylcyclopropane-1-carboxamide]",86
5,"N#C[C@H]1C[C@@H]1C(=O)c1ccc(Cl)c(Cl)c1 [(1S,2S)-2-[(3,4-Dichlorophenyl)carbonyl]cyclopropane-1-carbonitrile]",68
6,"O=C(O)[C@H]1C[C@@H]1C(=O)c1ccc(Cl)c(Cl)c1 [(1S,2S)-2-[(3,4-Dichlorophenyl)carbonyl]cyclopropane-1-carboxylic acid]",106
7,"O=C(O)[C@H]1C[C@@H]1C(=O)c1ccc(F)c(F)c1 [(1S,2S)-2-[(3,4-Difluorophenyl)carbonyl]cyclopropane-1-carboxylic acid]",88
8,"O=C(NCCO)[C@H]1C[C@@H]1C(=O)c1ccc(Cl)c(Cl)c1 [(1S,2S)-2-[(3,4-dichlorophenyl)carbonyl]-N-(2-hydroxyethyl)cyclopropane-1-carboxamide]",94
9,"O=C(O)[C@H]1C[C@@H]1C(=O)c1cc(Cl)cc(Cl)c1 [(1S,2S)-2-[(3,5-Dichlorophenyl)carbonyl]cyclopropane-1-carboxylic acid]",103
10,"O=C(O)[C@H]1C[C@@H]1C(=O)c1ccc(OC2CC2)c(Cl)c1 [(1S,2S)-2-[(3-Chloro-4-cyclopropoxyphenyl)carbonyl]cyclopropane-1-carboxylic acid]",101
11,"Cc1ccc(C(=O)[C@H]2C[C@@H]2C(=O)O)cc1Cl [(1S,2S)-2-[(3-Chloro-4-methylphenyl)carbonyl]cyclopropane-1-carboxylic acid]",100
12,"O=C(O)[C@H]1C[C@@H]1C(=O)c1cccc(Cl)c1 [(1S,2S)-2-[(3-Chlorophenyl)carbonyl]cyclopropane-1-carboxylic acid]",105
13,"NC(=O)[C@H]1C[C@@H]1C(=O)c1ccc(OC2CC2)c(Cl)c1 [(1S,2S)-2-[(3-chloro-4-cyclopropoxyphenyl)carbonyl]cyclopropane-1-carboxamide]",42
14,"O=C(O)[C@H]1C[C@@H]1C(=O)c1ccc(Cl)c(F)c1 [(1S,2S)-2-[(4-Chloro-3-fluorophenyl)carbonyl]cyclopropane-1-carboxylic acid]",103
15,"CC(C)Oc1ccc(C(=O)[C@H]2C[C@@H]2C(=O)O)cc1Cl [(1S,2S)-2-{[3-Chloro-4-(propan-2-yloxy)phenyl]carbonyl}cyclopropane-1-carboxylic acid]",98
16,"O=C(O)[C@H]1C[C@@H]1C(=O)c1ccc(C(F)(F)F)c(Cl)c1 [(1S,2S)-2-{[3-Chloro-4-(trifluoromethyl)phenyl]carbonyl}cyclopropane-1-carboxylic acid]",102
17,"CC1(C)[C@@H](C(=O)O)[C@@H]1C(=O)c1ccc(Cl)c(Cl)c1 [(1S,3S)-3-(3,4-dichlorobenzoyl)-2,2-dimethylcyclopropane-1-carboxylic acid]",15.4

# Same assay, conditions: compound at 30 µM; KMO enzyme from mouse liver mitochondria; 100 μM L-Kynurenine; 40 min at RT; listed as 1S,2S)-2-(3-chloro-4-cyclopropoxybenzoyl)cyclopropane-1-carboxylic acid
row,Structure (SMILES),% Inhibition at 30 µM [%]
1,"O=C(O)[C@H]1C[C@@H]1C(=O)c1ccc(OC2CC2)c(Cl)c1 [(1S,2S)-2-[(3-Chloro-4-cyclopropoxyphenyl)carbonyl]cyclopropane-1-carboxylic acid]",100.5
